Results on 3 molecules are retold here after ChEMBL document CHEMBL5523761 (J Med Chem, 2024).

Test [1] has as its target T1, D(4) dopamine receptor (Homo sapiens, UniProt P21917).
T1 sequence (P21917 whole entry): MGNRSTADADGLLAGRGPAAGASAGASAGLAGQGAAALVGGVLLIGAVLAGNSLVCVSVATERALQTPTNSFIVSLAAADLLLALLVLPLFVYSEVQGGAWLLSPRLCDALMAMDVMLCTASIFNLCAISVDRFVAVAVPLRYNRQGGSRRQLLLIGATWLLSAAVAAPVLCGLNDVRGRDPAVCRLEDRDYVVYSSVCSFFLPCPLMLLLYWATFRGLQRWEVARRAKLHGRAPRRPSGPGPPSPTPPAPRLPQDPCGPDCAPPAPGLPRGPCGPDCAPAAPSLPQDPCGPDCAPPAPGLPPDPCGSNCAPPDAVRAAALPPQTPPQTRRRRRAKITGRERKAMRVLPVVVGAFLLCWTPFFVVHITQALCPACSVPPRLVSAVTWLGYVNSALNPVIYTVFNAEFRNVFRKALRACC
Description: Agonist activity at D4 receptor (unknown origin)

Test [2] addresses T2, D(3) dopamine receptor (Homo sapiens, UniProt P35462).
Description: Agonist activity at D3 receptor (unknown origin)
For test [3], the target named is T3, Amine oxidase [flavin-containing] A (Homo sapiens, UniProt P21397).
T3 sequence (P21397 whole entry): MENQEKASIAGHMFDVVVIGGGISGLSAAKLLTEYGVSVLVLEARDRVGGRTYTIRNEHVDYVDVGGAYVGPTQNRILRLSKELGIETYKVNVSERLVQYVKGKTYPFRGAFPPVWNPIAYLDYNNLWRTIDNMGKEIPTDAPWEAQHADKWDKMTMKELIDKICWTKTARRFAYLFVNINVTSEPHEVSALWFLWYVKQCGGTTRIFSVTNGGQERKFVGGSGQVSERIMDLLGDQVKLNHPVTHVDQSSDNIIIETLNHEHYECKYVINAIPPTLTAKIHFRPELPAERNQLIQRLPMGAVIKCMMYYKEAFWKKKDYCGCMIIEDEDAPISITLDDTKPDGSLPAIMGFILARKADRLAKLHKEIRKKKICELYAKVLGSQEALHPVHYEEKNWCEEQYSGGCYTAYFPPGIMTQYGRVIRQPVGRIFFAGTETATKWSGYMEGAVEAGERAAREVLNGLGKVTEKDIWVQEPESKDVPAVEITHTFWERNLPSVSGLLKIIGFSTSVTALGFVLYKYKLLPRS
Description: Inhibition of MAO-A (unknown origin) measured by MAO-GloTM method

For test [4], the target named is T4, Amine oxidase [flavin-containing] B (Homo sapiens, UniProt P27338).
T4 sequence (P27338 whole entry): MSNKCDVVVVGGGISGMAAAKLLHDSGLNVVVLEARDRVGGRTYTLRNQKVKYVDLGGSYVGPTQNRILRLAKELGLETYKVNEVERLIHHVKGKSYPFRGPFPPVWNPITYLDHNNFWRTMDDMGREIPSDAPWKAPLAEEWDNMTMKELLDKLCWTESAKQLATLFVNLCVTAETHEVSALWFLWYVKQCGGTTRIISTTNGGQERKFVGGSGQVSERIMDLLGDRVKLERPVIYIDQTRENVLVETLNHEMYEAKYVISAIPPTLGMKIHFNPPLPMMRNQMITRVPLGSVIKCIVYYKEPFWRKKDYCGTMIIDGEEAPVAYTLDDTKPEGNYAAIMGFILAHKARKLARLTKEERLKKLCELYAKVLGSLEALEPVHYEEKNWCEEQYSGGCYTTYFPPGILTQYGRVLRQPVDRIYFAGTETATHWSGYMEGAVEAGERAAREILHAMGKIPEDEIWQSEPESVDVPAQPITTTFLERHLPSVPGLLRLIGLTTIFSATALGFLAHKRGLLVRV
Description: Inhibition of MAO-B (unknown origin) measured by MAO-GloTM method

Test [5] concerns the target T2, D(3) dopamine receptor. This is another data set of the same source.
Description: Inhibition of D3 receptor (unknown origin)
The target in another test is Vasopressin V1a receptor (Homo sapiens, UniProt P37288).
Vasopressin V1a receptor, sequence (P37288 whole entry): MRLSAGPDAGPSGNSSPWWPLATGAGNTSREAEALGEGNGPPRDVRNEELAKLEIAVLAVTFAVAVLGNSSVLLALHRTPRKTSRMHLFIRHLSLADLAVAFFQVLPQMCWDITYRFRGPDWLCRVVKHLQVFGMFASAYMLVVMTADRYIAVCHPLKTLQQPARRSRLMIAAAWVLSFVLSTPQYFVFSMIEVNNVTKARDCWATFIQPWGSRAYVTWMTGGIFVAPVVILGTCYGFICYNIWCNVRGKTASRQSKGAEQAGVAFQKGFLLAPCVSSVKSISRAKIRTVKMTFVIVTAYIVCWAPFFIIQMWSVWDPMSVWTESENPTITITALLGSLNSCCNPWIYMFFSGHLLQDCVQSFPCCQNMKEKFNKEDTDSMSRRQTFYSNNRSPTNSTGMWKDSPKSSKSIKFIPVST
The target of test [6] is T1, D(4) dopamine receptor. This is another data set of the same source.
Description: Inhibition of D4 receptor (unknown origin)

Molecules are shown by their SMILES. Some results are limits rather than exact numbers.

T2 sequence (P35462 whole entry): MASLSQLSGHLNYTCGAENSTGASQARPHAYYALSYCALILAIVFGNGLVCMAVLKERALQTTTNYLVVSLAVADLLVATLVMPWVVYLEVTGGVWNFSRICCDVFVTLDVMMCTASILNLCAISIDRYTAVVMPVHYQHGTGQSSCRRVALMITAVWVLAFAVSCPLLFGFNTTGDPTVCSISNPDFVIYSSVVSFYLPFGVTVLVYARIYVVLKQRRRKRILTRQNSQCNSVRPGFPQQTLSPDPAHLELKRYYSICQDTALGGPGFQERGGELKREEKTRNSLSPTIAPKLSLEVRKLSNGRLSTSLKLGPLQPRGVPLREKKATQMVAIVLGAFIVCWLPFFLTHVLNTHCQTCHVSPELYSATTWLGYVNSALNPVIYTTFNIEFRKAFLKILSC
Description for Vasopressin V1a receptor: Inhibition of Vasopressin V1A receptor (unknown origin)

One may read the EC50 as the concentration giving half of the maximal effect. A high value points to weaker potency. As a reminder, the IC50 is the concentration needed to halve the response being measured. A lower IC50 goes with inhibition by little substance. Consider `Oc1c(O)c(Br)c(COCc2c(Br)c(O)c(O)c(Br)c2Br)c(Br)c1Br`, for which the EC50 on D(4) dopamine receptor [1] and on D(3) dopamine receptor [2] was 59 µM in each case. Also, the IC50 in test [3] turned out to be 89.3 µM; in test [4], 103 µM.
For the molecule `O=C(/C=C/c1ccc(O)cc1)c1ccc(O)cc1O` [ISOLIQUIRITIGENIN], the IC50 against D(3) dopamine receptor [5] was determined as 62.3 µM; on Vasopressin V1a receptor, 78.6 µM.
`O=c1cc(-c2ccc(O)c(O)c2)oc2cc(O)cc(O)c12` [LUTEOLIN]: the IC50 in test [3] is 8.57 µM; in test [4], greater than 100 µM; on D(4) dopamine receptor [6] it was 39.6 µM; against Vasopressin V1a receptor, 19.5 µM.
